This note sets out measurements from ChEMBL document CHEMBL1201862, “PubChem BioAssay data set” (2004).

Molecules are shown by their SMILES. Calls of active or inactive are those of the source.

Experiment [1] in a line: microbe, parasite or virus in culture. Format: functional. To be noted: Mycobacterium tuberculosis.
Experiment [2] concerns the target T1, Fatty acid synthase (Homo sapiens, UniProt P49327). As to the kind of experiment: inhibition of human FAS-TE enzyme activity – biochemical, kinetic fluorescence intensity, dose response (AID 624326).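 Note: rate of fluorescence rise from hydrolysis of a fluorogenic O-methyl fluorescein ester substrate.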 Format: functional.
In experiment [3] the target is T1, Fatty acid synthase. As to the kind of experiment: inhibition of human FAS-TE enzyme activity – biochemical, endpoint fluorescence intensity, uHTS hits, dose response (AID 624327).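 Note: fluorescence from hydrolysis of an O-methyl fluorescein acyl ester substrate by the enzyme.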 Format: functional.
The target of experiment [4] is T2, Histone-lysine N-methyltransferase NSD2 (Homo sapiens, UniProt O96028).
T2 sequence (O96028 whole entry): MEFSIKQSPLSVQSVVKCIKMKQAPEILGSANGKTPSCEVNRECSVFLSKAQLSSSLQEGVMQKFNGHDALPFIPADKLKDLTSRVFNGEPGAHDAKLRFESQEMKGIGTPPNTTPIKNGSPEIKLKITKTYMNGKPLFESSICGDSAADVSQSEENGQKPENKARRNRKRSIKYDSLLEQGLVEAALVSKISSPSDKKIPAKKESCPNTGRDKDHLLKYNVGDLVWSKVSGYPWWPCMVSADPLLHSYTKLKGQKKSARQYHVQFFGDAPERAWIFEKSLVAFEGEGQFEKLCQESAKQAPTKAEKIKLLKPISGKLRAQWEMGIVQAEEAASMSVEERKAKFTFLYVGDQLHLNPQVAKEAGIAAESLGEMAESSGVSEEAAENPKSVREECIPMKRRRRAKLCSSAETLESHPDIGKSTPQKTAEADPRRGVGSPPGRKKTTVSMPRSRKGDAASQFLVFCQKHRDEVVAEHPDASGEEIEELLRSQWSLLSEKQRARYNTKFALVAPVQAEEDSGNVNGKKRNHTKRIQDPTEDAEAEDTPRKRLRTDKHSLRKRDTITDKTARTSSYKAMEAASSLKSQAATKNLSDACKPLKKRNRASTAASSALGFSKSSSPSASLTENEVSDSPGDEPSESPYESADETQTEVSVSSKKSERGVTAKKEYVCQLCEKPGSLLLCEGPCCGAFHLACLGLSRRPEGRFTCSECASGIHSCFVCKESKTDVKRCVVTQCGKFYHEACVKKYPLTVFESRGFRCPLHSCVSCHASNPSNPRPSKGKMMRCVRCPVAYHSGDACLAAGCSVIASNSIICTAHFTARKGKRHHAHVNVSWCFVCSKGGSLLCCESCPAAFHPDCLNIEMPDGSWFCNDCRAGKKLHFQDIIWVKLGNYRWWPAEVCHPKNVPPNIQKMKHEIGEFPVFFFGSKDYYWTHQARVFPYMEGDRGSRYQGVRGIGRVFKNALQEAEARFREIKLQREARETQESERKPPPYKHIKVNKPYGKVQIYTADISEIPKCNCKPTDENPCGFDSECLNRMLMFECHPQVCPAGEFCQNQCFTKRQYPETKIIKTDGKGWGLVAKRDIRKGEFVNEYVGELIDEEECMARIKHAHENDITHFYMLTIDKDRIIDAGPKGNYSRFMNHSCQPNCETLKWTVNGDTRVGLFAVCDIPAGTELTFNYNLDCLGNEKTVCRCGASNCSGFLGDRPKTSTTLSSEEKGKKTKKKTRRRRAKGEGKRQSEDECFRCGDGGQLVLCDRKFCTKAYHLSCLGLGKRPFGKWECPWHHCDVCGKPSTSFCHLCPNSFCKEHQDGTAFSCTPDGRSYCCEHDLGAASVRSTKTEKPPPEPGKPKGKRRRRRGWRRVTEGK
The class given is biochemical.

The target in experiment [5] is Heat shock protein HSP 90-alpha (Homo sapiens, UniProt P07900). Format: functional, organism-based.
In experiment [6] the target is T3, Calpain-2 catalytic subunit (Sus scrofa, UniProt P43367).
T3 sequence (P43367 whole entry): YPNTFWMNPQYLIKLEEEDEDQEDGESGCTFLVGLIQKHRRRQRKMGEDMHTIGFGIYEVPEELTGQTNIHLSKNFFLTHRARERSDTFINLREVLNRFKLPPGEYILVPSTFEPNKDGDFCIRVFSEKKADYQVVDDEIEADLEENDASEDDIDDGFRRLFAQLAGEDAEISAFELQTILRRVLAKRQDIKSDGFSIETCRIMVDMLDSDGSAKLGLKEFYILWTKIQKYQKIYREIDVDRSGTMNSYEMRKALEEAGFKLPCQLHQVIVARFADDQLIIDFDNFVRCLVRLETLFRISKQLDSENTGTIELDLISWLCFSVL
As to the kind of experiment: m-calpain protease blockers, concentration series – biochemical, fluorogenic peptide substrate, dose response (AID 1420). Format: functional.

In experiment [7] the target is T4, Long-chain-fatty-acid--AMP ligase FadD28 (Mycobacterium tuberculosis, UniProt P9WQ59).
T4 sequence (P9WQ59 whole entry): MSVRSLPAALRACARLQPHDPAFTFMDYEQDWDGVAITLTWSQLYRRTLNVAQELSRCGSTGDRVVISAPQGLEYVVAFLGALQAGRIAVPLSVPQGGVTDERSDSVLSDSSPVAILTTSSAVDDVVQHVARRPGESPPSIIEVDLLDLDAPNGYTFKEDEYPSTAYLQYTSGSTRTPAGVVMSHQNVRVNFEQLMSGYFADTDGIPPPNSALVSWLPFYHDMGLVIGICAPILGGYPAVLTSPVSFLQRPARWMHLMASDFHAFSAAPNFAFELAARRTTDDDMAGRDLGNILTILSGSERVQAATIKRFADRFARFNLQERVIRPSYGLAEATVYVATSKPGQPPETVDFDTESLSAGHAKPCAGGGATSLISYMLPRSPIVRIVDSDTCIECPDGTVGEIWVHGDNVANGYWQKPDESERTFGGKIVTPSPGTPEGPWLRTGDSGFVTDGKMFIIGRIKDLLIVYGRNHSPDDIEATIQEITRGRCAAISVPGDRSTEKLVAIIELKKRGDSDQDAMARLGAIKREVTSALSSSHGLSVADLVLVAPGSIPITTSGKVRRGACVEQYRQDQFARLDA
Nature of the experiment: Fluorescence polarization aasay to screen for inhibitors that compete for the binding of FadD28 to a bisubstrate Measured in Biochemical System Using Plate Reader - 2147-01_Inhibitor_Dose_CherryPick_Activity. Format: functional, Mycobacterium tuberculosis H37Rv.

A further experiment concerns the target T5, Aminopeptidase N (Plasmodium falciparum FcB1/Columbia, UniProt O96935).
T5 sequence (O96935 whole entry): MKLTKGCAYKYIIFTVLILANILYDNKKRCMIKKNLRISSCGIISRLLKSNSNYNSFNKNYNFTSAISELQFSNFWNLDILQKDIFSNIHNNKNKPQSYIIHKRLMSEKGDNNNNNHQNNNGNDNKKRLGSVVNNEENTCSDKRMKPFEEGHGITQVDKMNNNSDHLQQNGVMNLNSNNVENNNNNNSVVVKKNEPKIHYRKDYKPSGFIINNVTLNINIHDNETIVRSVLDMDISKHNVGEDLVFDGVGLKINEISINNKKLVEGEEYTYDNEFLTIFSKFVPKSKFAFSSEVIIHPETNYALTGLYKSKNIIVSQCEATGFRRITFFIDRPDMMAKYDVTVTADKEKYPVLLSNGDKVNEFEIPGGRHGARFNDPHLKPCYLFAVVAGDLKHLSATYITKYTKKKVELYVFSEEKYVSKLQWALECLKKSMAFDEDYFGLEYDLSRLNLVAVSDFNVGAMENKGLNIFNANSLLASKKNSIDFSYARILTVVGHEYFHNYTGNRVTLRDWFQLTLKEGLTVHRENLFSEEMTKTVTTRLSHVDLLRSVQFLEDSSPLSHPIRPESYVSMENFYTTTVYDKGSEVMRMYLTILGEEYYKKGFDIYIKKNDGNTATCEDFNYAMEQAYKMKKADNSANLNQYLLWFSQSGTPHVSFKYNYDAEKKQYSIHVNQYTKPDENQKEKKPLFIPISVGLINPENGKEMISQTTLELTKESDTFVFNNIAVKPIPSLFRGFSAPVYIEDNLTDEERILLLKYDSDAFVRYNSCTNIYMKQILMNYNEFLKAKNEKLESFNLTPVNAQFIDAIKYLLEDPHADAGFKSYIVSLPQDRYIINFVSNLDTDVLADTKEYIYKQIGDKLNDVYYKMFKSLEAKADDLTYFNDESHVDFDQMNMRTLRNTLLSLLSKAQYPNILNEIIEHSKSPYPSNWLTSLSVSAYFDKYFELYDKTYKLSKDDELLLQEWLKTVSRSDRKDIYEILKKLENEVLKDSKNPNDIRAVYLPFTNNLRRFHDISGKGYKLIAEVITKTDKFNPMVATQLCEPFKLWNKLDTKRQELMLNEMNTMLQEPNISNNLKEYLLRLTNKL
Nature of the experiment: malaria alanyl aminopeptidase activity blockers – biochemical, fluorogenic H-Leu-NHMec substrate, 1536-well (AID 1445). Details: species or system Plasmodium falciparum 3D7, 3D7.

Experiment [8] can be described thus: viability of HCT116 lacking mutant beta-catenin – cell-based, human colon tumor, dose response (AID 1045).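 Note: HCT116 colon tumor cells with beta catenin knocked out; cells exposed to compound for 60 hours.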 The class given is functional.
Experiment [9] is described as follows: viability of PTEN-deleted HCT116 cells – cell-based, HCT116 PTEN knockout, dose response (AID 1047).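 Note: HCT116 colon tumor cells with PTEN knocked out; cells exposed to compound for 60 hours before readout; potency for loss of cell viability measured by luminescence.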 Format: functional.
The subject of another experiment is SN12K1. As to the kind of experiment: cells. Format: functional. The conditions noted are these: Homo sapiens.
The test system of another experiment is P388/ADR. As to the kind of experiment: cells. The class given is functional. The conditions noted are these: Mus musculus.
In a further experiment the test system is P388. Nature of the experiment: cells. The class given is functional. The conditions noted are these: Mus musculus.

T1 sequence (P49327 whole entry): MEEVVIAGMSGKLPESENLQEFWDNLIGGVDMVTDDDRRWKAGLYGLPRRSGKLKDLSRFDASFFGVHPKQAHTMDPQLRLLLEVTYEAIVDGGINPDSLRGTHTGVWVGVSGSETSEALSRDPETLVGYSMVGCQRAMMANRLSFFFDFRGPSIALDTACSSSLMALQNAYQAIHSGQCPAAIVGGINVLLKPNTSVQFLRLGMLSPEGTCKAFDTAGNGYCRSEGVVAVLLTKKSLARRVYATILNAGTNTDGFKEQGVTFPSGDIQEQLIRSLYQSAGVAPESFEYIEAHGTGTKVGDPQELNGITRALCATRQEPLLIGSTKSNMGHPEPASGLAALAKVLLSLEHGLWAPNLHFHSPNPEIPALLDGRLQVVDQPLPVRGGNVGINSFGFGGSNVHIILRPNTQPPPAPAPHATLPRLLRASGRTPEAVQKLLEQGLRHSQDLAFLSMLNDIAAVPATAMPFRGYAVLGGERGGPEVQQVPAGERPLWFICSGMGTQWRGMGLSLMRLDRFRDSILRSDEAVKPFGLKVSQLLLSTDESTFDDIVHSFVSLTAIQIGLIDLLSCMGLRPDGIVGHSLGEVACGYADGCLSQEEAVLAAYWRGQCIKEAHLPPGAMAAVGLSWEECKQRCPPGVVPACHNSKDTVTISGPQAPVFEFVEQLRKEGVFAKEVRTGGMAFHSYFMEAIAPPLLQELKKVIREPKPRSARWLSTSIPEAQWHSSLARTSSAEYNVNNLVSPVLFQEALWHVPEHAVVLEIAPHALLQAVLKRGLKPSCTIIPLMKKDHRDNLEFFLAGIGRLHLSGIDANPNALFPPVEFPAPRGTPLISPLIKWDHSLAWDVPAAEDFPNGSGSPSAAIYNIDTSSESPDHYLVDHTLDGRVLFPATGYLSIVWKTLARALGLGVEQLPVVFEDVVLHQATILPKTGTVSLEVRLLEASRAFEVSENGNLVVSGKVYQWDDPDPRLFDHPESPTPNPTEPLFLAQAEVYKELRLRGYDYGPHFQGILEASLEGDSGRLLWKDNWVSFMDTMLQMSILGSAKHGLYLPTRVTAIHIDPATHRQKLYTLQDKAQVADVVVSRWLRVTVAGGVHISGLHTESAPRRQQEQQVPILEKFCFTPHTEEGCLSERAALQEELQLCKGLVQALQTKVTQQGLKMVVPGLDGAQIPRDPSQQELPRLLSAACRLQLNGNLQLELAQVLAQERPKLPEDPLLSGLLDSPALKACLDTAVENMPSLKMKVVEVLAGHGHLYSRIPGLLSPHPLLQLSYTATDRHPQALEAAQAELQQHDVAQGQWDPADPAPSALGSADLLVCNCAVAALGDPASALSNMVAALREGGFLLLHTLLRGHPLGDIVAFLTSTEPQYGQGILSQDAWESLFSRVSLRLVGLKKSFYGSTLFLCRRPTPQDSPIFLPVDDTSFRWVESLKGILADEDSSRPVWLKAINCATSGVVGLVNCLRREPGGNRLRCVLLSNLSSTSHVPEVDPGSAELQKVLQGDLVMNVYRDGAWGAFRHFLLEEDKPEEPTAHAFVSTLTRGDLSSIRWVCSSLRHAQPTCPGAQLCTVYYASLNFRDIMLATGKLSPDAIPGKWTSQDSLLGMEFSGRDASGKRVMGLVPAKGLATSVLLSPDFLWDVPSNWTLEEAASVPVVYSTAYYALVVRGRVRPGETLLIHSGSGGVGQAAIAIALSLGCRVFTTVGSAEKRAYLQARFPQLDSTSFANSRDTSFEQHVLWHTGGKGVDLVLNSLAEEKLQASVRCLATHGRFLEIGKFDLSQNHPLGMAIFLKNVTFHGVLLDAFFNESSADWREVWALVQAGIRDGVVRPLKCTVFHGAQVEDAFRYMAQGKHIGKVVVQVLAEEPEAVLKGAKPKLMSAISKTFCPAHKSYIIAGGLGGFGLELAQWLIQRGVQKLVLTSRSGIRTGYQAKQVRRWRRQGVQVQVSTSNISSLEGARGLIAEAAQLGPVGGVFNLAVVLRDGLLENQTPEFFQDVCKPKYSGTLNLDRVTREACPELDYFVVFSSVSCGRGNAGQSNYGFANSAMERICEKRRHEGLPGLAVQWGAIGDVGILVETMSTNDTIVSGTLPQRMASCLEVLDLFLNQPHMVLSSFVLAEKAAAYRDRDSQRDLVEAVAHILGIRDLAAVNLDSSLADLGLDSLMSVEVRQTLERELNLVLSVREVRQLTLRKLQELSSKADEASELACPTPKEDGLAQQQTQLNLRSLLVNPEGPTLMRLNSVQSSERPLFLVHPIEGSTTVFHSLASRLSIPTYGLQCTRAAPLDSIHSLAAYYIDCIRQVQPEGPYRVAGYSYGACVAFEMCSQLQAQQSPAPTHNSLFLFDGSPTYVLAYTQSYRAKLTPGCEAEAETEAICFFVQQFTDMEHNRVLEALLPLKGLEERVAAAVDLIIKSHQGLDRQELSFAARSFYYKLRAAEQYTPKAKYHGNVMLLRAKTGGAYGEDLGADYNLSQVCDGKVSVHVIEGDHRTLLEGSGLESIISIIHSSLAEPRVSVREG

In the case of `CCCCCn1c(CN2CCN(c3cccc(Cl)c3)CC2)nc2c1c(=O)[nH]c(=O)n2C`, the CC50 in experiment [1] is > 40 µM (active).

In general, IC50 refers to the point on the concentration scale where inhibition reaches its midpoint. As for `COc1cccc(NC(=O)CN2C(=O)CSc3ccc(S(=O)(=O)N4CCCCC4)cc32)c1`, the IC50 on Fatty acid synthase [2] is 9.58 µM (active); on Fatty acid synthase [3], 8.72 µM (active).

As usually defined, the AC50 is the concentration giving half of the maximal activity seen. Regarding `O=C1NC(=S)S/C1=C\c1cc2ccccc2nc1N1CCCCC1`, the AC50 is 11.1 µM (active) in experiment [4] and 3.98 µM (active) in [5]. Also, the figures for the IC50 (on Fatty acid synthase [2]; at Fatty acid synthase [3]; in experiment [6]) were 11.2 µM (active), 46 µM (inactive) and 1.63 µM (not active), respectively.

Regarding `CCn1cc(CN2CCC(C(=O)Nc3ccc(Oc4cccnc4)cc3)CC2)c(C)n1`, in experiment [7], the half-maximal activity concentration (AC50) is 21.7 µM (active).

`C/C(NNC(=O)c1ccccc1O)=C1/C(=O)NC(=O)N(Cc2ccccc2)C1=O`: the AC50 in [7] was 20.4 µM (active). For the same compound, the IC50 at Aminopeptidase N was 19.2 µM (active).

What is called EC50 is the midpoint of the concentration-response curve. Regarding `Cc1oc(-c2cccc(Cl)c2)nc1CN1CCC(C(=O)N2CCN(c3ccccc3F)CC2)CC1`, the EC50 in experiment [8] is 14.5 µM (active); in experiment [9] it was 15.5 µM (active). Further, the CC50 in experiment [1] is 28.9 µM (active).

`Cc1cc(C(=O)CCl)c(C)n1-c1cccc([N+](=O)[O-])c1`: in experiment [1], the CC50 is 13.5 µM (active).

For the compound `CCN(c1ccc(NC(=O)CSc2ccc3c(c2)OCCO3)cc1)C(C)C`, the AC50 in experiment [7] is 20.3 µM (active).

Take `Cc1ccc(S(=O)(=O)c2nnn3c2nc(NCCCN2CCCC2=O)c2ccccc23)cc1C`: the IC50 at Fatty acid synthase [2] was 2.85 µM (active); on Fatty acid synthase [3] it was 5.19 µM (active).

Take `COc1cc(/C=C2\SC(=O)N(CC(=O)Nc3cccc(C)c3)C2=O)ccc1OC(C)C(=O)O` (stereo unspecified): the AC50 in experiment [7] was 0.583 µM (active).

For orientation: GI50 means the concentration giving 50% growth inhibition. Turning to `COc1cc2cc(c1Cl)N(C)C(=O)C[C@H](OC(=O)[C@H](C)N(C)C(C)=O)[C@]1(C)O[C@H]1[C@H](C)[C@@H]1C[C@@](O)(NC(=O)O1)[C@H](OC)/C=C/C=C(/C)C2`, the results for the GI50 in the experiment on SN12K1, in the experiment with P388/ADR and in the experiment with P388 were 0.0262 µM (active), 0.025 µM (active) and 0.025 µM (active), respectively.

As to `CC(=O)c1cccc2c1OC(C)C(=O)N2Cc1ccc(Cl)cc1` (stereo unspecified), the IC50 at Fatty acid synthase [2] is 5.63 µM (active); at Fatty acid synthase [3], 9.15 µM (active).

Turning to `N#C/C(=N\Nc1ccc([N+](=O)[O-])cc1)C(N)=S`, in [7], the AC50 was 19.5 µM (active).

With `Cn1cc(/C=N/NC(=O)COc2ccccc2[N+](=O)[O-])c2ccccc21`, the AC50 in experiment [7] was > 100 µM (inactive).
